Usually IC50 stands for the midpoint of a concentration-inhibition curve. Broadly, the logD is lipophilicity at a set pH, counting ionised and neutral species.

“And” between values parts separate entries of the source, which are not always exact repeats. Equal entries are not always repeated. Where two headings read alike, the source gives them in different places.

The test system of one data set is PEA1 cells. Description: MTT cytotoxicity assay, PEA1. It counts as cell-based, human. Conditions: for IC50: Homo sapiens, PEA1, 72 h. How it is done: (§1) All cell lines were obtained from the American Type Culture Collection (ATCC) and cultured in the specified medium supplemented with 10% fetal bovine serum, 100 IU/mL penicillin, and 100 μg/mL streptomycin at 37°C in a humidified 5% CO2/95% air incubator. Synthesis of new compounds is described in S1 File, and >95% purity of RA475, Up284 and its analogs were confirmed by NMR and MS. To assess drug cytotoxicity, cells were seeded at 2,500 cells/well (10,000 cells/well for MM lines) in 100 μL medium in 96-well plate as triplicates and after 24 h treated with compounds for a further 72 h. To assess cytotoxicity, the cells were incubated for 2 h at 37°C according to the manufacturer’s protocol with the Thiazolyl Blue Tetrazolium Bromide (20 μL/well of 5 mg/mL stock solution in water) (Sigma, M5655) and A570 measured using a Benchmark Plus microplate spectrophotometer (BIO-RAD). IC50 was estimated using Graphpad Prism 7 software.
(§2) Modifications of Up284 were sought to improve its drug-like properties without significant compromise of its activity in vivo, and several new compounds were synthesized (S1 File). Based on our prior studies of its pharmacophore, the central ring nitrogen was the most logical for addition of charged moieties, including RA475 and RA484. We also examined a change to either 3,4 spiro rings (RA477, RA479), or addition of 3-Fluoro substitutions (RA482) (S1 File). Our focus is developing iRPN13 to treat ovarian cancer resistant to standard of care drug regimens.
A wash-out experiment was performed to assess reversibility of the toxicity. PEA1 cells were treated with RA475 for 1 h before the medium was replaced with fresh culture medium, and the cells were then allowed to grow for another 71 hours (PEA1-WO). In parallel, PEA1 cells were incubated with RA475 continuously for 72 h. […] Possible reasons include slow uptake of RA475, reversible binding and neutralization by antioxidants in the medium.
To study the effect of RA475 in combination with approved therapeutics (DNA damaging agents or radiation) an MTT assay was performed using various concentrations of both drugs. Briefly PEA1 and OVCAR3 cells were each treated with drug combination (RA475 plus cisplatin) for 72 h in a checker board analysis and cell viability was measured using MTT assay. The data were analyzed and plotted using the Synergy Finder web application.
For orientation: Tetrazolium assays rely on reduction of a dye to a coloured formazan, in cell work by metabolically active cells.

The next data set relates to SUM149. The experiment in a line: MTT cytotoxicity assay, SUM149. It counts as cell-based. As to conditions: SUM149, 72 h. How it is done: as §1
In the next data set the test system is HCC1395. The experiment in a line: MTT cytotoxicity assay, HCC1395. The class given is cell-based. Conditions: Homo sapiens, HCC1395, 72 h. The protocol: as §1
Another data set has as its system TC1-Ova. Description: MTT cytotoxicity assay, TC1-Ova. The class given is cell-based. Conditions: 72 h. The protocol:
as §1

The next data set concerns B6-Ova. Description: MTT cytotoxicity assay, B6-Ova. It counts as cell-based. As to conditions: 72 h. The protocol:
as §1

Another data set relates to Calu-1. The experiment in a line: MTT cytotoxicity assay, Calu-1. The class given is cell-based. Conditions: Homo sapiens, Calu-1, 72 h. The protocol: as §1
The next data set concerns BT549. The experiment in a line: MTT cytotoxicity assay, BT549. Conditions: Homo sapiens, BT-549, BT549, 72 h. It counts as cell-based. How it is done:
as §1

The subject of a further data set is MCF7. Description: MTT cytotoxicity assay, MCF7. Conditions: Homo sapiens, MCF7, 72 h. The class given is cell-based. How it is done: as §1
The subject of data set [1] is cancer lines in S1B Table. Description: MTT cytotoxicity, summary over cell line panel. It counts as cell-based. As to conditions: for IC50: 72 h, read-out: mean IC50 across all cancer lines in S1B Table. How it is done:
as §1, §2
We elected to focus on RA475 and expanded the analysis in a larger panel of cell lines including those from common cancer types and normal tissues. […] This panel included another pair of cell lines isolated from another ovarian cancer patient with drug-resistant disease (PEO4) and pre-treatment (PEO1), and both were similarly sensitive to RA475.

Data set [2] is described as follows: LogD measurement, shake-flask octanol/PBS pH 7.4. It counts as physicochemical. As to conditions: for D: octanol/PBS pH 7.4, single injections 1-3; for LogD, pH 7.4: single injections 1-3. How it is done: Incubations were carried out in Eppendorf-type polypropylene microtubes in triplicates. A 2.5 μL aliquot of 20 mM DMSO stock of a test compound was added into the previously mutually saturated mixture containing 500 μL of PBS (pH 7.4) and 500 μL of octanol. The solution was allowed to mix in a rotator for 1 hour at 30 rpm. Phase separation was assured by centrifugation for 2 min at 6000 rpm. The octanol phase was diluted 100-fold with 40% acetonitrile, and the aqueous phase (PBS buffer) was diluted 10-fold. The samples (both phases) were analyzed using an HPLC system coupled with a tandem mass spectrometer. […] Calculations of the partition ratios were carried out using the equation below. D=do.So/dp.Sp where:
So–peak area of the analyte in octanol phase
SP–peak area of the analyte in PBS buffer
do–dilution coefficient for octanol phase

The nature of data set [3]: Tissue distribution in CD1 mice. As to conditions: 24 h; for Concentration in brain: one IV dose 40 mg/kg. It counts as in vivo, mouse. The protocol:
For the stability studies and biodistribution studies, plasma or tissue homogenate (20 μL) was extracted with 100 μL of acetonitrile containing the internal standard RA413S (a structural analogue) at 10 ng/mL. Tissue homogenates were prepared at a concentration of 200 mg/mL in PBS. After vortex-mixing and centrifuging for 5 min at 2500 xg, 10 μL of the supernatant was injected into LC-MS/MS system. […] Mobile phase A was water containing 0.1% formic acid, and mobile phase B was acetonitrile containing 0.1% formic acid. The gradient started with mobile phase B at 20% and was held at 20% for 0.5 minutes with a flow rate of 0.3 mL/min, then increased to 100% over 0.5 minutes and held for 2.0 minutes, and finally returned back to 20% mobile phase B and allowed to equilibrate until 4.1minutes. An AB Sciex 5500 triple quadrupole mass spectrometer operated in positive electrospray ionization mode was used for the detection of RA475. The lower limit of quantitation (LLOQ) in plasma was 10 ng/mL.
In a separate experiment to assess drug distribution, CD1 mice were injected with one dose of RA475 (40 mg/kg, IV) and tissues collected after 4 h and 24 h. RA475 levels were analyzed in all major tissues (brain, colon, heart, kidney, liver, lung and spleen) by LC-MS/MS.
Fig 5 Tissue distribution of RA475 and Up284 in mice. Female CD1 mice (n = 3/drug) were treated with one IV dose of A) RA475 (40mg/kg) or B) Up284 (40mg/Kg) and euthanized after 24 h with collection of plasma and tissues including brain, colon, heart, kidney, liver, lung and spleen. RA475 and Up284 concentrations in tissue samples were analyzed by LC-MS/MS. TEXT PRINTED IN THE PICTURE: (A) RA475: RA475 Concentration (ng/mL or ng/g): 161 (Brain) | (B) Up284: Up284 Concentration (ng/mL or ng/g): 9214 (Brain)

In the case of `N#Cc1ccc(/C=C2/C(=O)/C(=C/c3ccc(C#N)cc3)C23CCNCC3)cc1` [Up284, reference compound], the IC50 was found to be 219 nM in the data set on PEA1 cells; 90 nM in the data set on SUM149; 120 nM with HCC1395 (MTT, read-out: IC50); 90 nM in the data set with TC1-Ova; 50 nM in the data set on B6-Ova; 65 nM with Calu-1. Further, the IC50 in the data set with BT549 amounted to 70 nM; in the data set on MCF7 it was 690 nM; in [1], 120 nM. The logD stood at 2.12 in data set [2] (n-octanol/PBS, pH 7.4, mean of three injections) and 2.06 in data set [2] (n-octanol/PBS, pH 7.4, single injections 1-3). In data set [2], the D is 1.15E+02 and 1.32E+02 and 1.44E+02. Moreover, in [2], the “LogD, pH 7.4” value came to 2.158. The Concentration in brain in data set [3] is on record as 9214 ng/mL or ng/g.
Consider `Cl.Cl.N#Cc1ccc(/C=C2/C(=O)/C(=C/c3ccc(C#N)cc3)C23CCN(C(=N)N)CC3)cc1` [RA475, 1,3-bis((E)-4-cyanobenzylidene)-2-oxo-7-azaspiro[3.5]nonane-7-carboximidamide dihydrochloride], for which the IC50 is 406 nM with PEA1 cells; 100 nM in the data set with SUM149; 464 nM with HCC1395; 150 nM with TC1-Ova; 70 nM in the data set with B6-Ova; 241 nM with Calu-1. The IC50 was found to be 229 nM in the data set on BT549, 742 nM in the data set on MCF7 and 420 nM in data set [1]. Moreover, the “cytotoxic effect after wash-out” value in the data set with PEA1 cells (PEA1, RA475 1 h then fresh medium 71 h vs continuous 72 h) is reported as “reduced its cytotoxic effect”. Moreover, in the data set with PEA1 cells (PEA1, checker board, 72 h, Synergy Finder), the “synergy with cisplatin for cytotoxicity” value is “mild synergy”. The “fold less potent than Up284” value in [1] (overall, cell line panel) was “approximately 3 fold”. The D in [2] is 3.84E+01 and 4.27E+01 and 3.16E+01. The logD was determined as 1.58 in data set [2] (pH 7.4, mean of three injections) and 1.58 in data set [2] (pH 7.4, single injections 1-3). Besides, in data set [2], the “LogD, pH 7.4” value is 1.631 and 1.5. Besides, the tissue accumulation entry in [3] (40 mg/kg IV) was “accumulated primarily in kidneys and liver”. Moreover, the Concentration in brain in [3] was 161 ng/mL or ng/g.

(Values after article PMC11239005, “Preclinical studies of RA475, a guanidine-substituted spirocyclic candidate RPN13/ADRM1 inhibitor for treatment of ovarian cancer” (PLOS ONE, 2024).)
